Here are results for 16 molecules from patent US10206394B2, “Herbicidal compounds” (Syngenta Participations AG, priority 2014, dated 2019).

Like-named read-outs stand apart in the source and are kept apart here.

Holding throughout (experiment): Glasshouse assay for herbicidal activity (pre- and post-emergence), percentage phytotoxicity
What all share (format): in vivo

Assay [1] has as its system Alopecurus myosuroides (ALOMY). As to conditions: Alopecurus myosuroides, rate 250 g/ha. An outline of the steps: (§1)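 Visual phytotoxicity score, 0% = undamaged to 100% = total kill, read 20 days after treatment for PRE and 15 days for POST. Pots of standard soil; treatment at day 1 (PRE) or roughly day 12 (POST). Glasshouse: 16 h photoperiod, 65% RH, 24/18 or 20/16 °C by climate type.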

A further assay concerns Avena fatua (AVEFA). Conditions: Avena fatua, rate 250 g/ha. An outline of the steps: as §1
Assay [2] concerns Echinochloa crus-galli (ECHCG). As to conditions: Echinochloa crus-galli, rate 250 g/ha. The essentials:
as §1

A further assay concerns Lolium perenne (LOLPE). Conditions: Lolium perenne, rate 250 g/ha. An outline of the steps:
as §1

[3] abbreviates: post-emergence, 360 h, POST-emergence, visual score 15 DAA (100%=total damage, 0%=no damage), read-out: Post-emergence herbicidal activity (percentage phytotoxicity) ALOMY POST.
Where [4] appears, read: pre-emergence, 480 h, PRE-emergence, visual score 20 DAA (100%=total damage, 0%=no damage), read-out: Pre-emergence herbicidal activity (percentage phytotoxicity) ALOMY PRE.
Setting [5] is: post-emergence, 360 h, POST-emergence, visual score 15 DAA (100%=total damage, 0%=no damage), read-out: Post-emergence herbicidal activity (percentage phytotoxicity) AVEFA POST.
[6] abbreviates: pre-emergence, 480 h, PRE-emergence, visual score 20 DAA (100%=total damage, 0%=no damage), read-out: Pre-emergence herbicidal activity (percentage phytotoxicity) AVEFA PRE.
The mark [7] stands for this setting: post-emergence, 360 h, POST-emergence, visual score 15 DAA (100%=total damage, 0%=no damage), read-out: Post-emergence herbicidal activity (percentage phytotoxicity) ECHCG POST.
Where [8] appears, read: pre-emergence, 480 h, PRE-emergence, visual score 20 DAA (100%=total damage, 0%=no damage), read-out: Pre-emergence herbicidal activity (percentage phytotoxicity) ECHCG PRE.
Where [9] appears, read: post-emergence, 360 h, POST-emergence, visual score 15 DAA (100%=total damage, 0%=no damage), read-out: Post-emergence herbicidal activity (percentage phytotoxicity) LOLPE POST.
Setting [10] is: pre-emergence, 480 h, PRE-emergence, visual score 20 DAA (100%=total damage, 0%=no damage), read-out: Pre-emergence herbicidal activity (percentage phytotoxicity) LOLPE PRE.

On to `Cc1cc(-n2cc(Cl)cn2)cc(C)c1C1C(=O)CC(CC(=O)NC/C=C/Cl)C1=O` (centres unmarked) [Compound B308], for which the pest or weed control at 250 g/ha worked out at 90% in assay [1] (setting [3]); 90% in assay [1] (setting [4]); 100% in the assay with Avena fatua (AVEFA) (setting [5]); 80% in the assay on Avena fatua (AVEFA) (setting [6]); 100% in assay [2] (setting [7]); 80% in assay [2] (setting [8]). For the same molecule, the results for the pest or weed control at 250 g/ha in the assay on Lolium perenne (LOLPE) (setting [9]) and with Lolium perenne (LOLPE) (setting [10]) were 60% and 80%, respectively.
With `COCC(C)NC(=O)CC1CC(=O)C(c2c(C)cc(-n3cc(Cl)cn3)cc2C)C1=O` (centres unmarked) [Compound B309], the pest or weed control at 250 g/ha in assay [1] (setting [3]) was determined as 100%; in assay [1] (setting [4]) it was 90%; in the assay with Avena fatua (AVEFA) (setting [5]), 100%; in the assay with Avena fatua (AVEFA) (setting [6]), 80%; in assay [2] (setting [7]), 100%; in assay [2] (setting [8]), 100%. Besides, the pest or weed control at 250 g/ha with Lolium perenne (LOLPE) (setting [9]) came to 60%; with Lolium perenne (LOLPE) (setting [10]), 80%.
In the case of `COCCCNC(=O)CC1CC(=O)C(c2c(C)cc(-n3cc(Cl)cn3)cc2C)C1=O` (centres unmarked) [Compound B310], the pest or weed control at 250 g/ha in assay [1] (setting [3]) stood at 90%; in assay [1] (setting [4]), 90%; in the assay with Avena fatua (AVEFA) (setting [5]), 100%; in the assay on Avena fatua (AVEFA) (setting [6]), 80%; in assay [2] (setting [7]), 100%; in assay [2] (setting [8]), 90%. The results for the pest or weed control at 250 g/ha in the assay with Lolium perenne (LOLPE) (setting [9]) and in the assay on Lolium perenne (LOLPE) (setting [10]) were 70% and 90%, respectively.
For the molecule `C=C(C)CNC(=O)CC1CC(=O)C(c2c(C)cc(-n3cc(Cl)cn3)cc2C)C1=O` (centres unmarked) [Compound B311], the pest or weed control at 250 g/ha turned out to be 80% in assay [1] (setting [3]); 80% in assay [1] (setting [4]); 90% with Avena fatua (AVEFA) (setting [5]); 80% with Avena fatua (AVEFA) (setting [6]); 100% in assay [2] (setting [7]); 90% in assay [2] (setting [8]). Further, the pest or weed control at 250 g/ha in the assay on Lolium perenne (LOLPE) (setting [9]) turned out to be 70%; in the assay on Lolium perenne (LOLPE) (setting [10]), 90%.
Take `Cc1cc(-n2cc(Cl)cn2)cc(C)c1C1C(=O)CC(CC(=O)NCc2cccc(Br)c2)C1=O` (centres unmarked) [Compound B312]: the pest or weed control at 250 g/ha in assay [1] (setting [3]) turned out to be 90%; in assay [1] (setting [4]) it was 10%; in the assay with Avena fatua (AVEFA) (setting [5]), 100%; in the assay with Avena fatua (AVEFA) (setting [6]), 10%; in assay [2] (setting [7]) it was 100%; in assay [2] (setting [8]) it was 70%. The pest or weed control at 250 g/ha amounted to 80% with Lolium perenne (LOLPE) (setting [9]) and 70% in the assay on Lolium perenne (LOLPE) (setting [10]).
Take `C#CC(C)(C)NC(=O)CC1CC(=O)C(c2c(C)cc(-n3cc(Cl)cn3)cc2C)C1=O` (centres unmarked) [Compound B313]: the pest or weed control at 250 g/ha in assay [1] (setting [3]) amounted to 90%; in assay [1] (setting [4]), 90%; in the assay on Avena fatua (AVEFA) (setting [5]), 70%; with Avena fatua (AVEFA) (setting [6]) it was 80%; in assay [2] (setting [7]), 90%; in assay [2] (setting [8]), 100%. Moreover, the figures for the pest or weed control at 250 g/ha with Lolium perenne (LOLPE) (setting [9]) and with Lolium perenne (LOLPE) (setting [10]) were 70% and 90%, respectively.
`CCCNC(=O)CC1CC(=O)C(c2c(C)cc(-n3cc(Cl)cn3)cc2C)C1=O` (centres unmarked) [Compound B314, 2-[3-[4-(4-chloropyrazol-1-yl)-2,6-dimethyl-phenyl]-2,4-dioxo-cyclopentyl]-N-propyl-acetamide]: the pest or weed control at 250 g/ha in assay [1] (setting [3]) worked out at 100%; in assay [1] (setting [4]), 100%; with Avena fatua (AVEFA) (setting [5]), 100%; with Avena fatua (AVEFA) (setting [6]) it was 90%; in assay [2] (setting [7]), 80%; in assay [2] (setting [8]) it was 100%. Moreover, the pest or weed control at 250 g/ha in the assay with Lolium perenne (LOLPE) (setting [9]) and in the assay with Lolium perenne (LOLPE) (setting [10]) was 90% in each case.
In the case of `CCC(C)NC(=O)CC1CC(=O)C(c2c(C)cc(-n3cc(Cl)cn3)cc2C)C1=O` (centres unmarked) [Compound B315], the pest or weed control at 250 g/ha in assay [1] (setting [3]) stood at 90%; in assay [1] (setting [4]) it was 80%; with Avena fatua (AVEFA) (setting [5]), 100%; with Avena fatua (AVEFA) (setting [6]) it was 80%; in assay [2] (setting [7]), 100%; in assay [2] (setting [8]), 100%. The pest or weed control at 250 g/ha stood at 80% with Lolium perenne (LOLPE) (setting [9]) and 70% in the assay with Lolium perenne (LOLPE) (setting [10]).
With `C=CC(C)NC(=O)CC1CC(=O)C(c2c(C)cc(-n3cc(Cl)cn3)cc2C)C1=O` (centres unmarked) [Compound B316], the pest or weed control at 250 g/ha is 90% in assay [1] (setting [3]); 90% in assay [1] (setting [4]); 100% in the assay with Avena fatua (AVEFA) (setting [5]); 80% in the assay with Avena fatua (AVEFA) (setting [6]); 100% in assay [2] (setting [7]); 90% in assay [2] (setting [8]). In addition, the values for the pest or weed control at 250 g/ha in the assay on Lolium perenne (LOLPE) (setting [9]) and with Lolium perenne (LOLPE) (setting [10]) were 90% and 80%, respectively.
For `C#CCNC(=O)CC1CC(=O)C(c2c(C)cc(-n3cc(Cl)cn3)cc2C)C1=O` (centres unmarked) [Compound B317], the pest or weed control at 250 g/ha in assay [1] (setting [3]) turned out to be 100%; in assay [1] (setting [4]), 90%; in the assay on Avena fatua (AVEFA) (setting [5]), 100%; in the assay with Avena fatua (AVEFA) (setting [6]), 90%; in assay [2] (setting [7]) it was 100%; in assay [2] (setting [8]) it was 100%. Besides, the pest or weed control at 250 g/ha in the assay with Lolium perenne (LOLPE) (setting [9]) and with Lolium perenne (LOLPE) (setting [10]) was 90% each time.
Turning to `CCNC(=O)CC1CC(=O)C(c2c(C)cc(-c3ccc(C#N)cn3)cc2C)C1=O` (centres unmarked) [Compound B318], the pest or weed control at 250 g/ha in assay [1] (setting [3]) was 90%; in assay [1] (setting [4]) it was 90%; in the assay with Avena fatua (AVEFA) (setting [5]) it was 100%; with Avena fatua (AVEFA) (setting [6]) it was 90%; in assay [2] (setting [7]), 100%; in assay [2] (setting [8]), 90%. For the same molecule, the pest or weed control at 250 g/ha is 90% in the assay with Lolium perenne (LOLPE) (setting [9]) and 100% in the assay on Lolium perenne (LOLPE) (setting [10]).
Consider `CC(C)=CNC(=O)CC1CC(=O)C(c2c(C)cc(-c3ccc(C#N)cn3)cc2C)C1=O` (centres unmarked) [Compound B319], for which the pest or weed control at 250 g/ha in assay [1] (setting [3]) is 70%; in assay [1] (setting [4]), 0%; with Avena fatua (AVEFA) (setting [5]) it was 80%; in the assay with Avena fatua (AVEFA) (setting [6]), 0%; in assay [2] (setting [7]), 100%; in assay [2] (setting [8]), 0%. The pest or weed control at 250 g/ha was 60% with Lolium perenne (LOLPE) (setting [9]) and 0% in the assay with Lolium perenne (LOLPE) (setting [10]).
Take `Cc1cc(-c2ccc(C#N)cn2)cc(C)c1C1C(=O)CC(CC(=O)NC(C)C)C1=O` (centres unmarked) [Compound B320]: the pest or weed control at 250 g/ha (in assay [1] (setting [3]); in assay [1] (setting [4]); in the assay with Avena fatua (AVEFA) (setting [5]); in the assay with Avena fatua (AVEFA) (setting [6]); in assay [2] (setting [7]); in assay [2] (setting [8])) was 100% in each case. Besides, the pest or weed control at 250 g/ha in the assay on Lolium perenne (LOLPE) (setting [9]) and in the assay on Lolium perenne (LOLPE) (setting [10]) was 100% throughout.
Turning to `Cc1cc(-c2ccc(C#N)cn2)cc(C)c1C1C(=O)CC(CC(=O)N2CCOCC2)C1=O` (centres unmarked) [Compound B321], the pest or weed control at 250 g/ha in assay [1] (setting [3]) is 90%; in assay [1] (setting [4]), 70%; in the assay with Avena fatua (AVEFA) (setting [5]), 100%; with Avena fatua (AVEFA) (setting [6]), 80%; in assay [2] (setting [7]), 100%; in assay [2] (setting [8]), 100%. Further, the pest or weed control at 250 g/ha with Lolium perenne (LOLPE) (setting [9]) and in the assay with Lolium perenne (LOLPE) (setting [10]) was 90% each time.
In the case of `Cc1cc(-c2ccc(Br)cn2)cc(C)c1C1C(=O)CC(CC(=O)NC(C)(C)C)C1=O` (centres unmarked) [Compound B322], the pest or weed control at 250 g/ha in assay [1] (setting [3]) was 100%; in assay [1] (setting [4]) it was 90%; in the assay on Avena fatua (AVEFA) (setting [5]), 100%; with Avena fatua (AVEFA) (setting [6]), 70%; in assay [2] (setting [7]) it was 100%; in assay [2] (setting [8]), 90%. Also, the pest or weed control at 250 g/ha was 100% in the assay on Lolium perenne (LOLPE) (setting [9]) and 90% with Lolium perenne (LOLPE) (setting [10]).
As to `CCNC(=O)CC1CC(=O)C(c2c(C)cc(-c3ccc(Br)cn3)cc2C)C1=O` (centres unmarked) [Compound B323], the pest or weed control at 250 g/ha in assay [1] (setting [3]) came out at 100%; in assay [1] (setting [4]) it was 100%; with Avena fatua (AVEFA) (setting [5]) it was 100%; in the assay with Avena fatua (AVEFA) (setting [6]), 90%; in assay [2] (setting [7]), 100%; in assay [2] (setting [8]) it was 100%. Further, the pest or weed control at 250 g/ha in the assay on Lolium perenne (LOLPE) (setting [9]) and in the assay with Lolium perenne (LOLPE) (setting [10]) was 100% in each case.
